Experimental data taken from US12679836B2, “4H-pyrrolo[3,2-c]pyridin-4-one compounds” (Bayer Aktiengesellschaft, priority 2019, dated 2026).
pIC50: −log10 of the molar value.

Columns and labels:
Bub1 = molecular target: T1, Bub1 (Homo sapiens, UniProt O43683); test: Bub1 TR-FRET high ATP kinase assay; type: biochemical; settings: Bub1 high ATP (2 mM) IC50 [mol/l], 2 mM ATP
T1 construct: catalytic domain of human Bub1 (amino acids 704-1085); His6 (N); made in house; host or cells: Hi5 insect cells
In short: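 Recombinant His6-tagged human Bub1 catalytic domain (aa 704-1085), from Hi5 insect cells, phosphorylating a biotinylated peptide substrate at high ATP concentration. TR-FRET read-out.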

Ba/F3-EGFR-WT cells = Ba/F3-EGFR-WT cells (Homo sapiens, UniProt P00533); test: Ba/F3 cell survival assay (Cell Titer-Glo), WT EGFR; type: cell-based; settings: without IL-3, with 10 ng/mL EGF, 48 h; read-out: BA/F3 (wild type) IC50
In short: (§1)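 Ba/F3 cells stably expressing WT EGFR or EGFR-insSVD from retroviral transduction were grown without IL-3 on 10 ng/mL EGF. Cells were plated at 4000 cells/well, treated with compound for 48 h at 37° C, and viability was read by CellTiter-Glo luminescence.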

[1] = molecular target: T2, EGFR with insertion of SVD between D770 and N771 (EGFR ins SVD) (Homo sapiens, UniProt P00533, DUP768-770); test: Exon20-Mutant-EGFR(D770_N771insSVD) kinase assay (TR-FRET); type: biochemical; settings: 2 mM ATP, several values per example where printed
T2 construct: made in house; host or cells: Sf9 insect cells (baculovirus)

Ba/F3-EGFR-insSVD cells = Ba/F3-EGFR-insSVD cells (Homo sapiens, UniProt P00533, DUP768-770, cells depend on it); test: Ba/F3 cell survival assay (Cell Titer-Glo), EGFR-insSVD; type: cell-based; settings: without IL-3, with 10 ng/mL EGF, 48 h; read-out: BA/F3 (insSVD) IC50
In short: as §1

T2 sequence (P00533 with tags, fused parts or gaps DUP768-770): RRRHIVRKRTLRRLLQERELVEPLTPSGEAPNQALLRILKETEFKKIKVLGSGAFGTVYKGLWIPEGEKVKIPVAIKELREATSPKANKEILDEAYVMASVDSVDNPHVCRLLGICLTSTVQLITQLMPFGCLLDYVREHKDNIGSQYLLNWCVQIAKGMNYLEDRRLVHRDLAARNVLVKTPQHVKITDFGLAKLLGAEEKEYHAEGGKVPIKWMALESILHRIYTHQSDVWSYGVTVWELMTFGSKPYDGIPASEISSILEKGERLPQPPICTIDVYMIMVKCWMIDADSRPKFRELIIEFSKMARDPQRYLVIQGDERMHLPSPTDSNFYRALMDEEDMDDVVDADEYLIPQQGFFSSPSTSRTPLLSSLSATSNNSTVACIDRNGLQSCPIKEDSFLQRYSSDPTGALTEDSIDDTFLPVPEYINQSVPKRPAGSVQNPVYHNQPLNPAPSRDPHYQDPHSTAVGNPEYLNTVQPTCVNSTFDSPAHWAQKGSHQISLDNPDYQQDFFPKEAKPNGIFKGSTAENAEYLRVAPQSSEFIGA
T1 sequence (O43683 704-1085): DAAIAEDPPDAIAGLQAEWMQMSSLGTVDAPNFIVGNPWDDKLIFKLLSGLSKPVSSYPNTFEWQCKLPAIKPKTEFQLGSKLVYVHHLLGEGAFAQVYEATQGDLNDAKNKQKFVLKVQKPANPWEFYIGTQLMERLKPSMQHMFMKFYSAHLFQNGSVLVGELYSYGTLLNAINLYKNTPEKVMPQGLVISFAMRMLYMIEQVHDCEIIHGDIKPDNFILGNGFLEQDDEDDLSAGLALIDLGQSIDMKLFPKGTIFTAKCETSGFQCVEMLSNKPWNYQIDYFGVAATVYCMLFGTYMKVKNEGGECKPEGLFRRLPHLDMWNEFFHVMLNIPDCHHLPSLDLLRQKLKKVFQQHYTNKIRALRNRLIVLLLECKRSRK
Sequence of Ba/F3-EGFR-insSVD cells (P00533 with tags, fused parts or gaps DUP768-770): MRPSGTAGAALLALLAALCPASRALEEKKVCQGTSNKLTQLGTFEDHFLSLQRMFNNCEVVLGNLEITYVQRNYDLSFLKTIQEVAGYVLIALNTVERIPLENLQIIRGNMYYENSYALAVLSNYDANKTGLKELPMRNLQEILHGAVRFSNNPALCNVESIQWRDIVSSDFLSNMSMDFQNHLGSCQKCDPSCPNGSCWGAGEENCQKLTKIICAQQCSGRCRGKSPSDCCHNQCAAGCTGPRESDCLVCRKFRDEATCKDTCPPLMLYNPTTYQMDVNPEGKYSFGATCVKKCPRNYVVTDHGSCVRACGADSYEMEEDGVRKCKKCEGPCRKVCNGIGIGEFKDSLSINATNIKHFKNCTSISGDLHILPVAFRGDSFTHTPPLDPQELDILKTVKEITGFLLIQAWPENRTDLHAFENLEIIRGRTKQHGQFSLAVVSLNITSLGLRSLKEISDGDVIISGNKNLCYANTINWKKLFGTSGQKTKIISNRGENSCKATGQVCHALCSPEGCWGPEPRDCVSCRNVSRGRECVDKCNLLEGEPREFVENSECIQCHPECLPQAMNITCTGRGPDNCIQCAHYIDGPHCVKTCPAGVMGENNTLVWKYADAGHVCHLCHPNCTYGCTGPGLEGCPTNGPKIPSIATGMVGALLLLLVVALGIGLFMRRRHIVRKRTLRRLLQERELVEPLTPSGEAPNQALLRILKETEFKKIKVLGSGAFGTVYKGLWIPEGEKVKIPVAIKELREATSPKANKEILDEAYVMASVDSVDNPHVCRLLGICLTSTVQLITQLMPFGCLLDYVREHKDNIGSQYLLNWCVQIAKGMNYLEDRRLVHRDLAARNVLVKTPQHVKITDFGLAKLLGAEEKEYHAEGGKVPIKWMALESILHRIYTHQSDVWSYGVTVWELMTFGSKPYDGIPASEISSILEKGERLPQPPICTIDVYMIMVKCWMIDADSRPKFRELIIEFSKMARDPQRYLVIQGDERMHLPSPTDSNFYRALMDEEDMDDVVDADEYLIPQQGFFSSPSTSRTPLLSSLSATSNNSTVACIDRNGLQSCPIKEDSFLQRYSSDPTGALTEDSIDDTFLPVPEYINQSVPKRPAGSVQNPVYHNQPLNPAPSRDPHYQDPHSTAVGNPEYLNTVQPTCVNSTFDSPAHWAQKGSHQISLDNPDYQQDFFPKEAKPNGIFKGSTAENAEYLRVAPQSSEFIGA
Sequence of Ba/F3-EGFR-WT cells (P00533 whole entry, stated change not applied): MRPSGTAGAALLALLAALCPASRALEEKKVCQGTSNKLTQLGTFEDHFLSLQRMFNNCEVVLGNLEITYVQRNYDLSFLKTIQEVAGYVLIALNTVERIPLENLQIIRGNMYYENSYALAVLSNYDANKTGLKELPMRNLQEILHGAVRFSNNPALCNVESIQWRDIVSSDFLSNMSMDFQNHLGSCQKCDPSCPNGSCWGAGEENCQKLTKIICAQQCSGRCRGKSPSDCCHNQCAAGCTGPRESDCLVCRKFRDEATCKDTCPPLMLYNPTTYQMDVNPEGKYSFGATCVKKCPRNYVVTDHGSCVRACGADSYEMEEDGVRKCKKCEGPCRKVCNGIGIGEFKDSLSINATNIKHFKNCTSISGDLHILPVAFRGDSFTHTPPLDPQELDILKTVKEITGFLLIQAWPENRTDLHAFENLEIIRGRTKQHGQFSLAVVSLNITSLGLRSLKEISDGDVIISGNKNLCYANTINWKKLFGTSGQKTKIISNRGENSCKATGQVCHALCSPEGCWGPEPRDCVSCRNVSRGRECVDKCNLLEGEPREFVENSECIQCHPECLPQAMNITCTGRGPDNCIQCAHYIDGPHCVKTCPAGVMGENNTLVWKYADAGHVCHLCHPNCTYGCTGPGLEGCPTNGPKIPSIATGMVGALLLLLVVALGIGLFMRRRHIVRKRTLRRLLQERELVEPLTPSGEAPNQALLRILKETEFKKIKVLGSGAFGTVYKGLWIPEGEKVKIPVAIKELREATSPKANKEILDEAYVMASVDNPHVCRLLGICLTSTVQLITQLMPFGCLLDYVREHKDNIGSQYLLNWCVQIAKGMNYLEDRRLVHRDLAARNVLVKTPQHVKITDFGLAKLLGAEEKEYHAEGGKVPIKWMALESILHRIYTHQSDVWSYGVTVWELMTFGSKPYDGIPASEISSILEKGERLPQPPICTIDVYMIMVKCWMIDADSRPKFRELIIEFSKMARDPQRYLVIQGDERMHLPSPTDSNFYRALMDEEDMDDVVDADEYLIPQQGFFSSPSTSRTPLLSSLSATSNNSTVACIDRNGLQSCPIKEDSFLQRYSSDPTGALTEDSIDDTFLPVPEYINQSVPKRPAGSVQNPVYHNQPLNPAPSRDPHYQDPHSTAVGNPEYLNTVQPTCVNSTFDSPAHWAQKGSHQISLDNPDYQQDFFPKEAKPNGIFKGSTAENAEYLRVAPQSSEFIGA

## CCc1c(Cl)cccc1Nc1c(-c2ccncc2OC[C@H]2CN(C)CCO2)[nH]c2c1C(=O)NCC2 [Example 55, 3-(3-chloro-2-ethylanilino)-2-(3-{[(2R)-4-methylmorpholin-2-yl]methoxy}pyridin-4-yl)-1,5,6,7-tetrahydro-4H-pyrrolo[3,2-c]pyridin-4-one]
Bub1
  pIC50: 5.12
Ba/F3-EGFR-WT cells
  GI50: 1.31 µM
[1]
  mutEGFR (D770_N771insSVD) kinase assay IC50: 0.000257 µM
Ba/F3-EGFR-insSVD cells
  GI50: 0.124 µM

## Cc1c(F)cccc1Nc1c(-c2ccncc2OCC2CN(C)CCO2)[nH]c2c1C(=O)NCC2 (centres unmarked) [Example 62, 3-(3-fluoro-2-methylanilino)-2-(3-{[4-methylmorpholin-2-yl]methoxy}pyridin-4-yl)-1,5,6,7-tetrahydro-4H-pyrrolo[3,2-c]pyridin-4-one]
Bub1
  pIC50: < 4.70
Ba/F3-EGFR-WT cells
  GI50: 0.697 µM
[1]
  mutEGFR (D770_N771insSVD) kinase assay IC50: 0.000237 µM
Ba/F3-EGFR-insSVD cells
  GI50: 0.0267 µM

## CCc1c(F)cccc1Nc1c(-c2ccncc2OCC2COCCO2)[nH]c2c1C(=O)NCC2 (centres unmarked) [Example 65, 2-(3-{[1,4-dioxan-2-yl]methoxy}pyridin-4-yl)-3-(2-ethyl-3-fluoroanilino)-1,5,6,7-tetrahydro-4H-pyrrolo[3,2-c]pyridin-4-one]
Bub1
  pIC50: 5.45
Ba/F3-EGFR-WT cells
  GI50: 0.287 µM
[1]
  mutEGFR (D770_N771insSVD) kinase assay IC50: 0.000136 µM
Ba/F3-EGFR-insSVD cells
  GI50: 0.0134 µM

## CCc1c(F)cccc1Nc1c(-c2ccncc2OCC2COC(C)(C)CO2)[nH]c2c1C(=O)NCC2 (centres unmarked) [Example 68, 2-(3-{[5,5-dimethyl-1,4-dioxan-2-yl]methoxy}pyridin-4-yl)-3-(2-ethyl-3-fluoroanilino)-1,5,6,7-tetrahydro-4H-pyrrolo[3,2-c]pyridin-4-one]
Bub1
  pIC50: < 4.70
Ba/F3-EGFR-WT cells
  GI50: 0.644 µM
[1]
  mutEGFR (D770_N771insSVD) kinase assay IC50: 0.000267 µM
Ba/F3-EGFR-insSVD cells
  GI50: 0.0373 µM

## COc1c(Cl)cccc1Nc1c(-c2ccncc2OC(C)C2CN(C)CCO2)[nH]c2c1C(=O)NCC2 (centres unmarked) [Example 71, 3-(3-chloro-2-methoxyanilino)-2-[3-({1-[4-methylmorpholin-2-yl]ethyl}oxy)pyridin-4-yl]-1,5,6,7-tetrahydro-4H-pyrrolo[3,2-c]pyridin-4-one]
Bub1
  pIC50: < 4.70
Ba/F3-EGFR-WT cells
  GI50: 1.42 µM
[1]
  mutEGFR (D770_N771insSVD) kinase assay IC50: 0.000405 µM
Ba/F3-EGFR-insSVD cells
  GI50: 0.132 µM
